Measurements as given in US10093630B2, “Pyrazole compounds and methods of making and using same” (ABIDE THERAPEUTICS, INC., priority 2014, dated 2018).
Like-named read-outs stand apart in the source and are kept apart here.

Key:
Experiment in all cases: In vitro competitive activity-based protein profiling (gel-based, FP-Rh or HT-01 probe)
Assay type in all cases: biochemical
ABHD6 = target: T1, ABHD6 (Mus musculus, UniProt Q8R2Y0); conditions: for inhibition at 1 µM: 1 μM inhibitor, read-out: % Inhibition at 1 μM, C = ABHD6; for inhibition at 10 µM: 10 μM inhibitor, read-out: % Inhibition at 10 μM, C = ABHD6; for IC50: mouse brain membrane fraction or cell lysates, 30 min preincubation at 37° C., read-out: Mouse (IC50 value, nM) ABHD6
T1 construct: Proteomes (mouse brain membrane fraction or cell lysates); from tissue; host or cells: mouse brain membrane fraction (or cell lysates, not specified)
T1 sequence (Q8R2Y0 1-336): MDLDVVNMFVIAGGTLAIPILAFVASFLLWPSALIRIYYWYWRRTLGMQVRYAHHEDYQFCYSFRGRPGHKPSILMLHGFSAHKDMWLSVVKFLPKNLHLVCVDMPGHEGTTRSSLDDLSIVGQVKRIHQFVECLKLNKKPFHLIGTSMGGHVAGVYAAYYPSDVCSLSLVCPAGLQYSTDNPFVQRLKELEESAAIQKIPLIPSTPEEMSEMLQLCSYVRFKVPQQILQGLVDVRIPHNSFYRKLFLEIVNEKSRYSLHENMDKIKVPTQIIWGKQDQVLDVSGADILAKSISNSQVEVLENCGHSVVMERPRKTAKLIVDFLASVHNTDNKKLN
In short: (§1)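 Gel-based read-out: fluorescent band intensity after SDS-PAGE reflected remaining hydrolase activity. Inhibitors were preincubated 30 min at 37° C with 1.0 mg/mL mouse brain membrane or lysate proteome before a further 30 min at 37° C with FP-Rh or HT-01 probe.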

FAAH = target: T2, FAAH (Mus musculus, UniProt O08914); conditions: for inhibition at 1 µM: 1 μM inhibitor, read-out: % Inhibition at 1 μM, B = FAAH; for inhibition at 10 µM: 10 μM inhibitor, read-out: % Inhibition at 10 μM, B = FAAH; for IC50: mouse brain membrane fraction or cell lysates, 30 min preincubation at 37° C., read-out: Mouse (IC50 value, nM) FAAH
T2 construct: Proteomes (mouse brain membrane fraction or cell lysates); from tissue; host or cells: mouse brain membrane fraction (or cell lysates, not specified)
T2 sequence (O08914 1-579): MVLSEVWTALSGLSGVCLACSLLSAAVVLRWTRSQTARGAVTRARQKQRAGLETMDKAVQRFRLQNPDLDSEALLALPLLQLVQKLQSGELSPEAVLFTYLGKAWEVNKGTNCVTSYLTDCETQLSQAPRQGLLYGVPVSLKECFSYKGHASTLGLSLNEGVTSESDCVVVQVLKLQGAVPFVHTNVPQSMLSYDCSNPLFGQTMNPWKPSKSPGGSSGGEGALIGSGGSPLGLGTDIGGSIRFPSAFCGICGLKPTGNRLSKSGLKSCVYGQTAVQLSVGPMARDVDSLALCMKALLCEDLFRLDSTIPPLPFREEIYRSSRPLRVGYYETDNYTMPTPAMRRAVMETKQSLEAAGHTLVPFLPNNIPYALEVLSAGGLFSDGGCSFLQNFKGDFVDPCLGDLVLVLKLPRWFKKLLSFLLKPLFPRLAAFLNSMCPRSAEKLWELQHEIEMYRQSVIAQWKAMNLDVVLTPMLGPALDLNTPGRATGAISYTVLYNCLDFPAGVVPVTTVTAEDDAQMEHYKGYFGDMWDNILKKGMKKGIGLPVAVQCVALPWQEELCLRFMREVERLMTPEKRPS
In short: as §1

MAGL = target: T3, MAGL (Mus musculus, UniProt O35678); conditions: for inhibition at 1 µM: 1 μM inhibitor; for inhibition at 10 µM: 10 μM inhibitor; for IC50: mouse brain membrane fraction or cell lysates, 30 min preincubation at 37° C., read-out: Mouse (IC50 value, nM) MAGL
T3 construct: Proteomes (mouse brain membrane fraction or cell lysates); from tissue; host or cells: mouse brain membrane fraction (or cell lysates, not specified)
T3 sequence (O35678 1-303): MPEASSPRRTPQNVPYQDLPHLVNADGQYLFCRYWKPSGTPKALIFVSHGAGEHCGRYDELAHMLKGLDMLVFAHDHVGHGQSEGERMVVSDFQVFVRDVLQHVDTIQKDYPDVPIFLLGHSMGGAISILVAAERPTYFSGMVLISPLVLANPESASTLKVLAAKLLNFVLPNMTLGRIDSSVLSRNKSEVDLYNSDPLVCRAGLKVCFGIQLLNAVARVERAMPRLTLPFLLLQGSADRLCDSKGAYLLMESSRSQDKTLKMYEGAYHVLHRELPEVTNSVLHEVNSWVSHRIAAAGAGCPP
In short: as §1

PLA2G7 = target: T4, PLA2G7 (Mus musculus, UniProt Q60963); conditions: for inhibition at 1 µM: 1 μM inhibitor, read-out: % Inhibition at 1 μM, D = PLA2G7; for inhibition at 10 µM: 10 μM inhibitor, read-out: % Inhibition at 10 μM, D = PLA2G7; for IC50: mouse brain membrane fraction or cell lysates, 30 min preincubation at 37° C.
T4 construct: Proteomes (mouse brain membrane fraction or cell lysates); from tissue; host or cells: mouse brain membrane fraction (or cell lysates, not specified)
T4 sequence (Q60963 22-440): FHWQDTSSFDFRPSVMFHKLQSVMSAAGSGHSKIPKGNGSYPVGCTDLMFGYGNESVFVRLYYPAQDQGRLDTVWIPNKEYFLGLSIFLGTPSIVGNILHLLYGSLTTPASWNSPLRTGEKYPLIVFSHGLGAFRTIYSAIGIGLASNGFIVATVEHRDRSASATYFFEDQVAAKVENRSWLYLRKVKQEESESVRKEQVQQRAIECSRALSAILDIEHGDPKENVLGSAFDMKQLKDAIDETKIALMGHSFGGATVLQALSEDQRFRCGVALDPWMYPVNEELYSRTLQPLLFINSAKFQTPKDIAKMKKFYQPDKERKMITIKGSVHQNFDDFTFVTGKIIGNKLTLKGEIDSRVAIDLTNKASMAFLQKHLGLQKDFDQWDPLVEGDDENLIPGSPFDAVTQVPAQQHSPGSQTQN
In short: as §1

| inhibition at 1 µM (ABHD6) | inhibition at 10 µM (ABHD6) | inhibition at 1 µM (FAAH) | inhibition at 10 µM (FAAH) | inhibition at 1 µM (MAGL) | inhibition at 10 µM (MAGL) | inhibition at 1 µM (PLA2G7) | inhibition at 10 µM (PLA2G7) | IC50 (ABHD6) | IC50 (FAAH) | IC50 (MAGL) | IC50 (PLA2G7) | Compound | inhibition at 1 µM (ABHD6; gel-based competitive ABPP) | inhibition at 1 µM (FAAH; gel-based competitive ABPP) | inhibition at 1 µM (MAGL; gel-based competitive ABPP) | inhibition at 1 µM (PLA2G7; gel-based competitive ABPP) | inhibition at 10 µM (ABHD6; gel-based competitive ABPP) | inhibition at 10 µM (FAAH; gel-based competitive ABPP) | inhibition at 10 µM (MAGL; gel-based competitive ABPP) | inhibition at 10 µM (PLA2G7; gel-based competitive ABPP) |
| --- | --- | --- | --- | --- | --- | --- | --- | --- | --- | --- | --- | --- | --- | --- | --- | --- | --- | --- | --- | --- |
| > 75% | > 75% | < 25% | 25 to 75% | < 25% | 25 to 75% | > 75% | > 75% | – | – | – | – | CS(=O)(=O)N1CCN(C(=O)n2cc(C#N)cn2)CC1 [Example 174, 1-(4-(Methylsulfonyl)piperazine-1-carbonyl)-1H-pyrazole-4-carbonitrile] | – | – | – | – | – | – | – | – |
| > 75% | > 75% | > 75% | > 75% | > 75% | > 75% | > 75% | > 75% | < 100 nM | 100 to 1000 nM | < 100 nM | – | N#Cc1cnn(C(=O)N2CCN(Cc3ccccc3)CC2)c1 [Example 9, 1-(4-Benzylpiperazine-1-carbonyl)-1H-pyrazole-4-carbonitrile] | – | – | – | – | – | – | – | – |
| < 25% | < 25% | < 25% | > 75% | < 25% | < 25% | < 25% | < 25% | – | – | – | – | N#Cc1cnn(C(=O)NCCCc2ccccc2)c1 [Example 33, 4-Cyano-N-(3-phenylpropyl)-1H-pyrazole-1-carboxamide] | – | – | – | – | – | – | – | – |
| > 75% | > 75% | > 75% | > 75% | > 75% | > 75% | > 75% | > 75% | > 1000 nM | > 1000 nM | > 1000 nM | > 1000 nM | O=C(c1ccccc1)N1CCCN(C(=O)n2cc(C(F)(F)F)cn2)CC1 [Example 158, (4-Benzoyl-1,4-diazepan-1-yl)(4-(trifluoromethyl)-1H-pyrazol-1-yl)methanone] | – | – | – | – | – | – | – | – |
| > 75% | > 75% | > 75% | > 75% | > 75% | > 75% | > 75% | > 75% | < 100 nM | < 100 nM | < 100 nM | < 100 nM | O=C(N1CCN(c2ccccc2Cl)CC1)n1cc(C(F)(F)F)cn1 [Example 227, (4-(2-Chlorophenyl)piperazin-1-yl)(4-(trifluoromethyl)-1H-pyrazol-1-yl)methanone] | – | – | – | – | – | – | – | – |
| > 75% | > 75% | < 25% | > 75% | > 75% | > 75% | < 25% | > 75% | – | – | – | – | O=C(N1CCN(Cc2ccc(Oc3ccccc3)cc2)CC1)n1cccn1 [Example 16, (4-(4-Phenoxybenzyl)piperazin-1-yl)(1H-pyrazol-1-yl)methanone] | – | – | – | – | – | – | – | – |

The next lines start with the molecule.

| Compound | inhibition at 1 µM (ABHD6) | inhibition at 10 µM (ABHD6) | inhibition at 1 µM (FAAH) | inhibition at 10 µM (FAAH) | inhibition at 1 µM (MAGL) | inhibition at 10 µM (MAGL) | inhibition at 1 µM (PLA2G7) | inhibition at 10 µM (PLA2G7) | IC50 (ABHD6) | IC50 (FAAH) | IC50 (MAGL) | IC50 (PLA2G7) | inhibition at 1 µM (ABHD6; gel-based competitive ABPP) | inhibition at 1 µM (FAAH; gel-based competitive ABPP) | inhibition at 1 µM (MAGL; gel-based competitive ABPP) | inhibition at 1 µM (PLA2G7; gel-based competitive ABPP) | inhibition at 10 µM (ABHD6; gel-based competitive ABPP) | inhibition at 10 µM (FAAH; gel-based competitive ABPP) | inhibition at 10 µM (MAGL; gel-based competitive ABPP) | inhibition at 10 µM (PLA2G7; gel-based competitive ABPP) |
| --- | --- | --- | --- | --- | --- | --- | --- | --- | --- | --- | --- | --- | --- | --- | --- | --- | --- | --- | --- | --- |
| CCN(Cc1cccc(Cl)c1)C(=O)n1cc(C(F)(F)F)cn1 [Example 244, N-(3-Chlorobenzyl)-N-ethyl-4-(trifluoromethyl)-1H-pyrazole-1-carboxamide] | 25 to 75% | – | > 75% | – | 25 to 75% | – | < 25% | – | > 1000 nM | < 100 nM | > 1000 nM | > 1000 nM | – | – | – | – | – | – | – | – |
| O=C(N1CCN(Cc2cccc(OCc3ccccc3)c2)CC1)n1cccn1 [Example 296, (4-(3-(Benzyloxy)benzyl)piperazin-1-yl)(1H-pyrazol-1-yl)methanone] | – | – | – | – | – | – | – | – | – | – | – | – | > 75% | > 75% | > 75% | < 25% | – | – | – | – |
| Cc1cnn(C(=O)N(C)CCN(C)C(=O)OC(C)(C)C)c1 [Example 29, tert-Butyl (2-(N,4-dimethyl-1H-pyrazole-1-carboxamido)ethyl)(methyl)carbamate] | < 25% | > 75% | < 25% | 25 to 75% | < 25% | 25 to 75% | < 25% | < 25% | – | – | – | – | – | – | – | – | – | – | – | – |
| CCN(Cc1cccc(C)c1)C(=O)n1cc(C(F)(F)F)cn1 [Example 247, N-Ethyl-N-(3-methylbenzyl)-4-(trifluoromethyl)-1H-pyrazole-1-carboxamide] | – | – | – | – | – | – | – | – | 100 to 1000 nM | 100 to 1000 nM | 100 to 1000 nM | > 1000 nM | 25 to 75% | > 75% | < 25% | < 25% | > 75% | > 75% | > 75% | < 25% |
| O=C(c1cnn(C(=O)N2CCN(Cc3ccncc3)CC2)c1)N1CCCCC1 [Example 70, Piperidin-1-yl(1-(4-(pyridin-4-ylmethyl)piperazine-1-carbonyl)-1H-pyrazol-4-yl)methanone] | 25 to 75% | > 75% | < 25% | 25 to 75% | < 25% | < 25% | > 75% | > 75% | – | – | – | – | – | – | – | – | – | – | – | – |
| CCN(Cc1cccc(OC)c1)C(=O)n1cc(Cl)cn1 [Example 128, 4-Chloro-N-ethyl-N-(3-methoxybenzyl)-1H-pyrazole-1-carboxamide] | – | > 75% | – | > 75% | – | > 75% | – | < 25% | > 1000 nM | 100 to 1000 nM | > 1000 nM | – | – | – | – | – | – | – | – | – |
| Cc1cnn(C(=O)N2CCCN(S(C)(=O)=O)CC2)c1 [Example 166, (4-Methyl-1H-pyrazol-1-yl)(4-(methylsulfonyl)-1,4-diazepan-1-yl)methanone] | – | < 25% | – | < 25% | – | < 25% | – | < 25% | – | – | – | – | – | – | – | – | – | – | – | – |
| O=C(NCCCc1ccccc1)n1cccn1 [Example 31, N-(3-Phenylpropyl)-1H-pyrazole-1-carboxamide] | – | < 25% | – | < 25% | – | < 25% | – | < 25% | – | – | – | – | – | – | – | – | – | – | – | – |
